Measurements published in patent US8735414B2 (priority 2009, dated 2014).

Assays:
[1] = system: bicistronic HCV replicon (replicon RNA, GenBank Accession No. AJ242654); experiment: HCV Replicon Assay; type: cell-based; details: Hepatitis C virus, 72 h, read-out: Replicon IC50

Compound: Cc1ccc2c(C#N)c(-c3ccc(S(=O)(=O)NC(C)(C)C(F)(F)F)cn3)n(C3CCCC3)c2c1F [compound 579, 6-(3-cyano-1-cyclopentyl-7-fluoro-6-methyl-1H-indol-2-yl)-N-(1,1,1-trifluoro-2-methylpropan-2-yl)pyridine-3-sulfonamide]
- IC50 [1]: < 0.5 µM
- melting point: 203 to 205 °C

Compound: Cc1cc2c(cc1F)c(C(N)=O)c(-c1ccc(S(=O)(=O)N[C@@H](C)C(F)(F)F)cn1)n2-c1cccnn1 [compound 912, 5-fluoro-6-methyl-1-(pyridazin-3-yl)-2-(5-{[(2S)-1,1,1-trifluoropropan-2-yl]sulfamoyl}pyridin-2-yl)-1H-indole-3-carboxamide]
- IC50 [1]: 2 to 5 µM
- melting point: 176 to 181 °C

Compound: N#Cc1c(-c2ccc(S(=O)(=O)NC(CF)CF)cn2)n(CC2CC2)c2cc(OC(F)(F)F)ccc12 [compound 68, 6-[3-cyano-1-(cyclopropylmethyl)-6-(trifluoromethoxy)-1H-indol-2-yl]-N-(1,3-difluoropropan-2-yl)pyridine-3-sulfonamide]
- IC50 [1]: < 0.5 µM
- melting point: 132 to 133 °C

Compound: C[C@H](NS(=O)(=O)c1ccc(-c2c(C#N)c3cc(Cl)ccc3n2-c2ccccn2)nc1)C(F)(F)F [compound 442, 6-[5-chloro-3-cyano-1-(pyridin-2-yl)-1H-indol-2-yl]-N-[(2S)-1,1,1-trifluoropropan-2-yl]pyridine-3-sulfonamide]
- IC50 [1]: < 0.5 µM
- melting point: 186 to 188 °C

Compound: CC(C)NS(=O)(=O)c1ccc(-c2c(C#N)c3cc(F)ccc3n2CC2CC2)nc1 [compound 6, 6-[3-cyano-1-(cyclopropylmethyl)-5-fluoro-1H-indol-2-yl]-N-(propan-2-yl)pyridine-3-sulfonamide]
- IC50 [1]: < 0.5 µM
- melting point: 160 to 162 °C

Compound: N#Cc1c(-c2ccc(S(=O)(=O)NC(CF)CF)cn2)n(-c2ccccn2)c2ccc(F)cc12 [compound 96, 6-[3-cyano-5-fluoro-1-(pyridin-2-yl)-1H-indol-2-yl]-N-(1,3-difluoropropan-2-yl)pyridine-3-sulfonamide]
- IC50 [1]: < 0.5 µM
- melting point: 170 to 172 °C

Compound: Cc1cc2c(C#N)c(-c3ccc(S(=O)(=O)N[C@@H](C)C(F)(F)F)cn3)n(-c3ncccn3)c2cc1F [compound 901, 6-[3-cyano-6-fluoro-5-methyl-1-(pyrimidin-2-yl)-1H-indol-2-yl]-N-[(2S)-1,1,1-trifluoropropan-2-yl]pyridine-3-sulfonamide]
- IC50 [1]: < 0.5 µM
- melting point: 125 to 130 °C

Compound: CC(C)NS(=O)(=O)c1ccc(-c2c(C#N)c3ccc(OC(F)(F)F)cc3n2CC2CC2)nc1 [compound 11, 6-[3-cyano-1-(cyclopropylmethyl)-6-(trifluoromethoxy)-1H-indol-2-yl]-N-(propan-2-yl)pyridine-3-sulfonamide]
- IC50 [1]: 0.5 to 2 µM
- melting point: 203 to 205 °C

Compound: Cc1ccc2c(C#N)c(-c3ccc(S(=O)(=O)NC4(C(F)(F)F)CCC4)cn3)n(C3CCCC3)c2c1 [compound 253, 6-(3-cyano-1-cyclopentyl-6-methyl-1H-indol-2-yl)-N-[1-(trifluoromethyl)cyclobutyl]pyridine-3-sulfonamide]
- IC50 [1]: < 0.5 µM
- melting point: 214 to 218 °C

Compound: C[C@H](NS(=O)(=O)c1ccc(-c2c(C#N)c3cc(F)ccc3n2-c2ncccn2)nc1)C(F)(F)F [compound 601, 6-[3-cyano-5-fluoro-1-(pyrimidin-2-yl)-1H-indol-2-yl]-N-[(2S)-1,1,1-trifluoropropan-2-yl]pyridine-3-sulfonamide]
- IC50 [1]: < 0.5 µM
- melting point: 201 to 203 °C

Compound: C[C@H](NS(=O)(=O)c1ccc(-c2c(C#N)c3ccc(F)cc3n2CC2CC2)nc1)C(F)(F)F [compound 397, 6-[3-cyano-1-(cyclopropylmethyl)-6-fluoro-1H-indol-2-yl]-N-[(2S)-1,1,1-trifluoropropan-2-yl]pyridine-3-sulfonamide]
- IC50 [1]: < 0.5 µM
- melting point: 174 to 175 °C

Compound: CCc1cc2c(cc1F)c(C#N)c(-c1ccc(S(=O)(=O)N[C@@H](C)C(F)(F)F)cn1)n2-c1cccc(C)c1 [compound 1009, 6-[3-cyano-6-ethyl-5-fluoro-1-(3-methylphenyl)-1H-indol-2-yl]-N-[(2S)-1,1,1-trifluoropropan-2-yl]pyridine-3-sulfonamide]
- IC50 [1]: < 0.5 µM
- melting point: 193 to 198 °C

Compound: C[C@@H](NS(=O)(=O)c1ccc(-c2c(C#N)c3ccc(OC(F)(F)F)cc3n2C2CCC2)nc1)C(F)(F)F [compound 191, 6-[3-cyano-1-cyclobutyl-6-(trifluoromethoxy)-1H-indol-2-yl]-N-[(2R)-1,1,1-trifluoropropan-2-yl]pyridine-3-sulfonamide]
- IC50 [1]: 0.5 to 2 µM
- melting point: 171 to 177 °C

Compound: CC[C@H](NS(=O)(=O)c1ccc(-c2c(C#N)c3cc(F)c(C)cc3n2C2CCC2)nc1)C(F)(F)F [compound 826, 6-(3-cyano-1-cyclobutyl-5-fluoro-6-methyl-1H-indol-2-yl)-N-[(2S)-1,1,1-trifluorobutan-2-yl]pyridine-3-sulfonamide]
- IC50 [1]: < 0.5 µM
- melting point: 212 to 217 °C

Compound: Cc1c(F)cc2c(C#N)c(-c3ccc(S(=O)(=O)N[C@H](C)C(F)(F)F)cn3)n(C3CCCC3)c2c1F [compound 653, 6-(3-cyano-1-cyclopentyl-5,7-difluoro-6-methyl-1H-indol-2-yl)-N-[(2R)-1,1,1-trifluoropropan-2-yl]pyridine-3-sulfonamide]
- IC50 [1]: < 0.5 µM
- melting point: 212 to 217 °C

Compound: CCc1cc2c(cc1F)c(S(C)(=O)=O)c(-c1ccc(S(=O)(=O)NC(C)(C)C)cn1)n2-c1ncccn1 [compound 869, N-tert-butyl-6-(6-ethyl-5-fluoro-3-(methylsulfonyl)-1-(pyrimidin-2-yl)-1H-indol-2-yl)pyridine-3-sulfonamide]
- IC50 [1]: 0.5 to 2 µM
- melting point: 244 to 248 °C

Compound: COc1ccnc(-n2c(-c3ccc(S(=O)(=O)N[C@@H](C)C(F)(F)F)cn3)c(C(N)=O)c3cc(F)c(C)cc32)n1 [compound 906, 5-fluoro-1-(4-methoxypyrimidin-2-yl)-6-methyl-2-(5-{[(2S)-1,1,1-trifluoropropan-2-yl]sulfamoyl}pyridin-2-yl)-1H-indole-3-carboxamide]
- IC50 [1]: < 0.5 µM
- melting point: 167 to 174 °C

Compound: CC(C)NS(=O)(=O)c1ccc(-c2c(C#N)c3cc(F)ccc3n2-c2ccccn2)nc1 [compound 439, 6-[3-cyano-5-fluoro-1-(pyridin-2-yl)-1H-indol-2-yl]-N-(propan-2-yl)pyridine-3-sulfonamide]
- IC50 [1]: < 0.5 µM
- melting point: 208 to 210 °C

Compound: Cc1cc2c(cc1F)c(C#N)c(-c1ccc(S(=O)(=O)N[C@@H](C)C(F)(F)F)cn1)n2-c1cccnc1 [compound 893, 6-[3-cyano-5-fluoro-6-methyl-1-(pyridin-3-yl)-1H-indol-2-yl]-N-[(2S)-1,1,1-trifluoropropan-2-yl]pyridine-3-sulfonamide]
- IC50 [1]: < 0.5 µM
- melting point: 217 to 221 °C

Compound: Cc1ccc2c(c1)c(C#N)c(-c1ccc(S(=O)(=O)N[C@H](C)C(F)(F)F)cn1)n2C1CCCCC1 [compound 487, 6-(3-cyano-1-cyclohexyl-5-methyl-1H-indol-2-yl)-N-[(2R)-1,1,1-trifluoropropan-2-yl]pyridine-3-sulfonamide]
- IC50 [1]: < 0.5 µM
- melting point: 180 to 189 °C

Compound: Cc1cc2c(cc1F)c(C#N)c(-c1ccc(S(=O)(=O)N[C@@H](C)C(F)(F)F)cn1)n2C1CCCCC1 [compound 678, 6-(3-cyano-1-cyclohexyl-5-fluoro-6-methyl-1H-indol-2-yl)-N-[(2S)-1,1,1-trifluoropropan-2-yl]pyridine-3-sulfonamide]
- IC50 [1]: < 0.5 µM
- melting point: 224 to 229 °C

Compound: CC(C)n1c(-c2ccc(S(=O)(=O)N[C@@H](C)C3CC3)cn2)c(C#N)c2ccc(OC(F)(F)F)cc21 [compound 308, 6-[3-cyano-1-(propan-2-yl)-6-(trifluoromethoxy)-1H-indol-2-yl]-N-[(1S)-1-cyclopropylethyl]pyridine-3-sulfonamide]
- IC50 [1]: 0.5 to 2 µM
- melting point: 144 to 145 °C

Compound: COc1cc2c(cc1F)c(C#N)c(-c1ccc(S(=O)(=O)NC(C)C)cn1)n2C1CCC1 [compound 101, 6-(3-cyano-1-cyclobutyl-5-fluoro-6-methoxy-1H-indol-2-yl)-N-(propan-2-yl)pyridine-3-sulfonamide]
- IC50 [1]: < 0.5 µM
- melting point: 234 to 237 °C

Compound: Cc1cc2c(cc1F)c(C(=O)N(C)C)c(-c1ccc(S(=O)(=O)N[C@@H](C)C(F)(F)F)cn1)n2C1CCCC1 [compound 783, 1-cyclopentyl-5-fluoro-N,N,6-trimethyl-2-(5-{[(2S)-1,1,1-trifluoropropan-2-yl]sulfamoyl}pyridin-2-yl)-1H-indole-3-carboxamide]
- IC50 [1]: 2 to 5 µM
- melting point: 278 to 280 °C

Compound: N#Cc1c(-c2ccc(S(=O)(=O)NC(CF)CF)cn2)n(-c2ccccn2)c2cc(OC(F)F)ccc12 [compound 249, 6-[3-cyano-6-(difluoromethoxy)-1-(pyridin-2-yl)-1H-indol-2-yl]-N-(1,3-difluoropropan-2-yl)pyridine-3-sulfonamide]
- IC50 [1]: < 0.5 µM
- melting point: 186 to 190 °C

Compound: CCc1cc2c(cc1F)c(C(N)=O)c(-c1ccc(S(=O)(=O)N[C@@H](C)C(F)(F)F)cn1)n2-c1cccc(Cl)c1 [compound 1027, 1-(3-chlorophenyl)-6-ethyl-5-fluoro-2-(5-{[(2S)-1,1,1-trifluoropropan-2-yl]sulfamoyl}pyridin-2-yl)-1H-indole-3-carboxamide]
- IC50 [1]: < 0.5 µM
- melting point: 200 to 205 °C

Compound: C[C@H](NS(=O)(=O)c1cnc(-c2c(C#N)c3cc(C#N)ccc3n2C2CCCC2)nc1)C(F)(F)F [compound 392, 2-(3,5-dicyano-1-cyclopentyl-1H-indol-2-yl)-N-[(2S)-1,1,1-trifluoropropan-2-yl]pyrimidine-5-sulfonamide]
- IC50 [1]: < 0.5 µM
- melting point: 250 to 254 °C

Compound: Cc1ccc2c(C#N)c(-c3ncc(S(=O)(=O)N[C@@H](C)C(F)(F)F)cn3)n(C3CCC3)c2c1 [compound 325, 2-(3-cyano-1-cyclobutyl-6-methyl-1H-indol-2-yl)-N-[(2S)-1,1,1-trifluoropropan-2-yl]pyrimidine-5-sulfonamide]
- IC50 [1]: < 0.5 µM
- melting point: 242 to 243 °C
